# Results reported in patent publication US20090117190A1, “SUSTAINED-RELEASE PREPARATION” (Nissan Chemical Industries, Ltd., priority 2005, published 2009).
# Where a name gives a salt, the structure may show the parent alone.
# What was measured:
# [1] = absorbability (bioavailability) of oral formulations in a dog; conditions: in vivo, during fasting
# From the text: (§1) On the other hand, the present inventors have heretofore conducted various studies on oral formulations of 4-bromo-6-[3-(4-chlorophenyl)propoxy]-5-(3-pyridylmethylamino)-3(2H)-pyridazinone (hereinafter referred to simply as Compound A) or its salt.
# [2] = solubility in water as a function of pH; assay type: physicochemical
# From the text: as §1
# [3] = elution test (paddle method, Japanese Pharmacopoeia Disintegration Test Solutions 1 and 2); assay type: physicochemical
# Description: The test conditions are as follows. Test solutions: Japanese Pharmacopoeia Disintegration Test Solution 1 (pH 1.2) 900 mL, Japanese Pharmacopoeia Disintegration Test Solution 2 900 mL (pH 6.8)+0.1% Tween 80 Paddle rotational speed: 50 rpm Liquid temperature: 37° C.
SMILES,bioavailability [1] [%],"solubility in water, dependence on pH ([2]; boundary in the vicinity of pH4.0)",solubility in water ([2]; in the vicinity of the pH in the intestine),"difference in the elution rate between Solution 1 (pH 1.2) and Solution 2 (pH 6.8) containing 0.1% Tween 80 ([3]; 900 mL, 37° C., paddle 50 rpm)","elution rate ([3]; Japanese Pharmacopoeia Disintegration Test Solution 2 (pH 6.8) + 0.1% Tween 80, after 6 hours, 37° C., paddle 50 rpm) [%]",solubility indicated by the elution test ([3]; in the vicinity of the pH in the intestine (Solution 2 + 0.1% Tween 80))
"O=c1[nH]nc(OCCCc2ccc(Cl)cc2)c(NCc2cccnc2)c1Br [Compound A, 4-bromo-6-[3-(4-chlorophenyl)propoxy]-5-(3-pyridylmethylamino)-3(2H)-pyridazinone]",~10,decreases in the vicinity of pH4.0 as a boundary,hardly soluble in water,,,
"O=c1[nH]nc(OCCCc2ccc(Cl)cc2)c(NCc2cccnc2)c1Br [hydrochloride of Compound A, 4-bromo-6-[3-(4-chlorophenyl)propoxy]-5-(3-pyridylmethylamino)-3(2H)-pyridazinone]",,,,substantial difference,< 20,hardly soluble
